Measurements taken from ChEMBL document CHEMBL1142871, “Flipped out: structure-guided design of selective pyrazolylpyrrole ERK inhibitors” (J Med Chem, 2007).
pIC50, pKi: −log10 of the molar value.

How the values were obtained:
[1] = molecular target: Mitogen-activated protein kinase 1 (Homo sapiens, UniProt P28482); test: Inhibition of ERK2 by spectrophotometric coupled-enzyme assay
[2] = molecular target: Mitogen-activated protein kinase 10 (Homo sapiens, UniProt P53779); test: Inhibition of JNK3 at 10 nM by spectrophotometric coupled-enzyme assay
[3] = molecular target: Glycogen synthase kinase-3 (Homo sapiens, UniProt P49840+P49841); test: Inhibition of GSK3; assay type: protein assay
[4] = molecular target: Mitogen-activated protein kinase 14 (Homo sapiens, UniProt Q16539); test: Inhibition of p38 alpha kinase
[5] = test system: COLO 205; test: Antiproliferative activity against Colo205 cells measured by [3H]thymidine incorporation after 48 hrs; assay type: functional, cell-based; settings: Homo sapiens
[6] = molecular target: Proto-oncogene tyrosine-protein kinase Src (Homo sapiens, UniProt P12931); test: Inhibition of SRC kinase
[7] = molecular target: T1, Receptor-type tyrosine-protein kinase FLT3 (Homo sapiens, UniProt P36888); test: Inhibition of FLT3 kinase
T1 sequence (P36888 whole entry): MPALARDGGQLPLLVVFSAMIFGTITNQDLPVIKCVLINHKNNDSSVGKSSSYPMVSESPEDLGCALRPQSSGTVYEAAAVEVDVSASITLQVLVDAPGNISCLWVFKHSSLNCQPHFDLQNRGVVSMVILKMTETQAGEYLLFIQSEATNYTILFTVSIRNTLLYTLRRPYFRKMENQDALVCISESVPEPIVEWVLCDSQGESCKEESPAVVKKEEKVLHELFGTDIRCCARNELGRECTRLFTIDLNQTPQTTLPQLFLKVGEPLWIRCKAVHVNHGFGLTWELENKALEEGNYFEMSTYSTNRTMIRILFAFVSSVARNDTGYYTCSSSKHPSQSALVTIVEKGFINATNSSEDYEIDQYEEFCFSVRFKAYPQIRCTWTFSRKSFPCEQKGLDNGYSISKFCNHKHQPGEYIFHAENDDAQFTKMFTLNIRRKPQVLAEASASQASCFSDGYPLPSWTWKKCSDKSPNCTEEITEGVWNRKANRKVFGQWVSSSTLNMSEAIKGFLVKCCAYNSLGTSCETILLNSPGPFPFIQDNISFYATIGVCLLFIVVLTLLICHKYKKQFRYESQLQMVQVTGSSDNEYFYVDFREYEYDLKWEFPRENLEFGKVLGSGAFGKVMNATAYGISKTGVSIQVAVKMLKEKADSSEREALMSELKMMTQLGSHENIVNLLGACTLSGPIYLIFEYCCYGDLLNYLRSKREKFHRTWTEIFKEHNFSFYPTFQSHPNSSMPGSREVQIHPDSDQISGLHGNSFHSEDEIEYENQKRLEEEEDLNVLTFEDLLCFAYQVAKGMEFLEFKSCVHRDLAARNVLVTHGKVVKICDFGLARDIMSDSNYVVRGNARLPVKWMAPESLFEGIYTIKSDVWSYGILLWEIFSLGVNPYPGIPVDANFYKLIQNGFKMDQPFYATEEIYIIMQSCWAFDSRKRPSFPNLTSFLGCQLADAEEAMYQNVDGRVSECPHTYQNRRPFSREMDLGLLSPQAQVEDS

[8] = molecular target: Cyclin-dependent kinase 2 (Homo sapiens, UniProt P24941); test: Inhibition of CDK2
[9] = molecular target: cAMP-dependent protein kinase (PKA) (Homo sapiens, UniProt P22694+P17612+P22612); test: Inhibition of PKA; assay type: protein assay
[10] = molecular target: RAC-gamma serine/threonine-protein kinase (Homo sapiens, UniProt Q9Y243); test: Inhibition of AKT3 kinase
[11] = molecular target: T2, Aurora kinase A (Homo sapiens, UniProt O14965); test: Inhibition of AURA kinase
T2 sequence (O14965 whole entry): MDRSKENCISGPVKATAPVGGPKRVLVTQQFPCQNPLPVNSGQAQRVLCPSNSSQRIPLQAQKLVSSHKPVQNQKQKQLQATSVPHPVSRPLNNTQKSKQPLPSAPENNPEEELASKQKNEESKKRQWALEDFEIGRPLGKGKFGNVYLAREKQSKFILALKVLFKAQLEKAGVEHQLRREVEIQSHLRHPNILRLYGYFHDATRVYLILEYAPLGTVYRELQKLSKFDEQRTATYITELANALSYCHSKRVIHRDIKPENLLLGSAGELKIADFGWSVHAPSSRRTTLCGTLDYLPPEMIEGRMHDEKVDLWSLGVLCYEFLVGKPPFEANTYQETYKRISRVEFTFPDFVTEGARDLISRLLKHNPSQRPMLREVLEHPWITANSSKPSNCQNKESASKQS

[12] = molecular target: Dual specificity mitogen-activated protein kinase kinase 1 (Homo sapiens, UniProt Q02750); test: Inhibition of MEK1
[13] = molecular target: Vascular endothelial growth factor receptor 2 (Homo sapiens, UniProt P35968); test: Inhibition of KDR kinase
Sequence of Vascular endothelial growth factor receptor 2 (P35968 whole entry): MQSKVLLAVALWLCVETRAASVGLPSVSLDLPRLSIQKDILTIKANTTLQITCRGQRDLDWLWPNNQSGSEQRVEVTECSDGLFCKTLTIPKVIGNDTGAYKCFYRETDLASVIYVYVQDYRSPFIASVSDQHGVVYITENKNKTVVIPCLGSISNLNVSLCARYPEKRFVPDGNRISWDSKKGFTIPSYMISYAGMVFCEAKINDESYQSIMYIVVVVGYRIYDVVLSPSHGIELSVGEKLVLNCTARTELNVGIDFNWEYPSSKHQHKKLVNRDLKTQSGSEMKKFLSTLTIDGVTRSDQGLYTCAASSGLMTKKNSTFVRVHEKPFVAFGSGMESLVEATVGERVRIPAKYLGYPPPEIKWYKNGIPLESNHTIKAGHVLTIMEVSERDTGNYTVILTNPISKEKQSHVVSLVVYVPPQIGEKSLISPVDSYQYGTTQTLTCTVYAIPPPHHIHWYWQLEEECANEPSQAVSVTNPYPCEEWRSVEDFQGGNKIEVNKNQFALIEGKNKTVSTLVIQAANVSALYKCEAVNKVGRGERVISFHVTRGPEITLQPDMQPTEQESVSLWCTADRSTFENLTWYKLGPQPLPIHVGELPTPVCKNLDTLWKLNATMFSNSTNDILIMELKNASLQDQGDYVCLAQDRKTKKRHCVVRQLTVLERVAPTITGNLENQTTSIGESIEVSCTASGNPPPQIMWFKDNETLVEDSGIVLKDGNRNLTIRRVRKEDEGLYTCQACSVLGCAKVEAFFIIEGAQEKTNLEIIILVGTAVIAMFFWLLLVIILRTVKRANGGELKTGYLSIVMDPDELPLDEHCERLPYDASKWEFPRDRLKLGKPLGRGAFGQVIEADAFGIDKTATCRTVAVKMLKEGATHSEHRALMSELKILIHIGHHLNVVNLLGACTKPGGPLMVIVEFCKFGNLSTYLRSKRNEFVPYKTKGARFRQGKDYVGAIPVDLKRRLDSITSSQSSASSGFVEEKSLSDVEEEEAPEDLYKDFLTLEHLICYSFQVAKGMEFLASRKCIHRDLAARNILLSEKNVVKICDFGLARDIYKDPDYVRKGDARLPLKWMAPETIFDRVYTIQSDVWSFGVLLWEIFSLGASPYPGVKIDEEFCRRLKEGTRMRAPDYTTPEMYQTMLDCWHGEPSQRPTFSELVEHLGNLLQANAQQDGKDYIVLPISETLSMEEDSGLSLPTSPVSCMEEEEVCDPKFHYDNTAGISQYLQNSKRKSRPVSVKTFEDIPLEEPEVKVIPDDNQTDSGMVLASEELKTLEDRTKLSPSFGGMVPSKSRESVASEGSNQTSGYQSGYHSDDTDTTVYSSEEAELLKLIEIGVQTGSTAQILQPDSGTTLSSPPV

Sequence of Mitogen-activated protein kinase 1 (P28482 whole entry): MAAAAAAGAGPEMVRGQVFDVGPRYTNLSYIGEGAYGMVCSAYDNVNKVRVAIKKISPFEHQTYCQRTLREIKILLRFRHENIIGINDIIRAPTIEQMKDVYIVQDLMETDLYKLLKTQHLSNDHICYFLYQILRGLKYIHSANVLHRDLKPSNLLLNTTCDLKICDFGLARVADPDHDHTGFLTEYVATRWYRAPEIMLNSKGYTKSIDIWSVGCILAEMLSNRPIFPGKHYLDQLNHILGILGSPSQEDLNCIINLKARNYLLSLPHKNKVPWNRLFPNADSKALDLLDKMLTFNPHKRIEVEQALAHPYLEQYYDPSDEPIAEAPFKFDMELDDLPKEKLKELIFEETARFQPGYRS
Sequence of Mitogen-activated protein kinase 10 (P53779 whole entry): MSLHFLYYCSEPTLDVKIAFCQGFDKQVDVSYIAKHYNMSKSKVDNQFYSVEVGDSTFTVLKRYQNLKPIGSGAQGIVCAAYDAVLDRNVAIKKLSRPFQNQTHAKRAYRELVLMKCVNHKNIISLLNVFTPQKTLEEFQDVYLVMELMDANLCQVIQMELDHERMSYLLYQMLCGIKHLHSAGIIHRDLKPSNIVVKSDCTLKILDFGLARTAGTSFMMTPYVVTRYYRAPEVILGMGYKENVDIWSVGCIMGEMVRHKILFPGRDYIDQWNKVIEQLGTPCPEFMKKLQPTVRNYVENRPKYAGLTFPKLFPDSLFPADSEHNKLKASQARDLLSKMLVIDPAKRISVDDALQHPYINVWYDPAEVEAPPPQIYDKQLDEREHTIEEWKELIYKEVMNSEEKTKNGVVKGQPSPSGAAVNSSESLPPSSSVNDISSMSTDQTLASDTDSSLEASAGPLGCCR
Sequence of Dual specificity mitogen-activated protein kinase kinase 1 (Q02750 whole entry): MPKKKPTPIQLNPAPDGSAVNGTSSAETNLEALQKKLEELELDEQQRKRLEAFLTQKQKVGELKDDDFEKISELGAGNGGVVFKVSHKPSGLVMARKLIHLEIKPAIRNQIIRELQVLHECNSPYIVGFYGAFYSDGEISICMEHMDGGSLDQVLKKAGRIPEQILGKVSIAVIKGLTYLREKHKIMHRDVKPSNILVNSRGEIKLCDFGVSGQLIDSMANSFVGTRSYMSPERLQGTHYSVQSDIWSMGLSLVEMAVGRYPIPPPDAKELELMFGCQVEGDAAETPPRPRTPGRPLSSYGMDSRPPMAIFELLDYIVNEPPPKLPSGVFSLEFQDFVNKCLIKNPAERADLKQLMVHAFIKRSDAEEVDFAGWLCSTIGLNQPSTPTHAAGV
Sequence of RAC-gamma serine/threonine-protein kinase (Q9Y243 whole entry): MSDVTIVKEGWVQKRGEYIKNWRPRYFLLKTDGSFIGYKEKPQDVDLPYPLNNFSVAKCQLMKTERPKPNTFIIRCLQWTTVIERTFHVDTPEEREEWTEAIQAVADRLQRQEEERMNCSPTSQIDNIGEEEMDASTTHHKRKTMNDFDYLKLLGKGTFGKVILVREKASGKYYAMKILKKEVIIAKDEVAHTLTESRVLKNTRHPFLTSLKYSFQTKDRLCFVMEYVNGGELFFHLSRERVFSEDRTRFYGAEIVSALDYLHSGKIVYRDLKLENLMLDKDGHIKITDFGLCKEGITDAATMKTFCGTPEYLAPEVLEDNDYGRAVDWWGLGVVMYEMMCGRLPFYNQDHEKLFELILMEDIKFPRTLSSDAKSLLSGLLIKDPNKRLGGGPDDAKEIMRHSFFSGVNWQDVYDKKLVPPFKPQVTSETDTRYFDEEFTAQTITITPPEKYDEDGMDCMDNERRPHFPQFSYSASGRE
Sequence of Proto-oncogene tyrosine-protein kinase Src (P12931 2-536 limits assumed): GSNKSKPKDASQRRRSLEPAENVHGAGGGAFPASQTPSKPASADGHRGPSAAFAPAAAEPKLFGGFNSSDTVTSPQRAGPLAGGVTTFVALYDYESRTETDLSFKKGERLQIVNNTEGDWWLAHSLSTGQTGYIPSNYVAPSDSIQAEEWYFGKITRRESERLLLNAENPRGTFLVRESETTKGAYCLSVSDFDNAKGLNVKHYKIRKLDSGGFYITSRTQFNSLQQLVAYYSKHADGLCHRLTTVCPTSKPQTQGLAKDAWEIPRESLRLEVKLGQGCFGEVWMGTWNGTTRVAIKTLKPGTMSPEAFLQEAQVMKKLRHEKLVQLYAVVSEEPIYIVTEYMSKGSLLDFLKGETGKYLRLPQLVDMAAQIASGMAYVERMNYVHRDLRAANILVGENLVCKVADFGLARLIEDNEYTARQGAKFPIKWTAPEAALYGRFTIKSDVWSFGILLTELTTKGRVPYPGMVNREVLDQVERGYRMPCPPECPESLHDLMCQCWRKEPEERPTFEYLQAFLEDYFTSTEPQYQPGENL
Sequence of Mitogen-activated protein kinase 14 (Q16539 whole entry): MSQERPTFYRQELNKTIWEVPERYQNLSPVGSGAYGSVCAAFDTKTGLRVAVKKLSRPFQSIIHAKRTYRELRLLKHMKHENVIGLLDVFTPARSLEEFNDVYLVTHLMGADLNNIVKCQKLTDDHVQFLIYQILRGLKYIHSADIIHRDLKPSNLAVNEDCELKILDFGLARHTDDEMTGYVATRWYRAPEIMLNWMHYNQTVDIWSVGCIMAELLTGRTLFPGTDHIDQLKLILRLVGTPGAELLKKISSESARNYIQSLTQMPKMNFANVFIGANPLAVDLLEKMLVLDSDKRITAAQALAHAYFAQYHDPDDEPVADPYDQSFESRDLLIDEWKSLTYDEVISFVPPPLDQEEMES

Row | Structure (SMILES) | pKi [1] | pKi [2] | further results
1 | O=C(N[C@H](C(=O)O)c1ccccc1)c1cc(-c2n[nH]cc2-c2cccc(Cl)c2)c[nH]1 | < 5.30 | < 5.40 | –
2 | O=C(NCC1CCCO1)c1cc(-c2[nH]ncc2-c2cccc(Cl)c2)c[nH]1 (stereo not given) | – | 5.57 | –
3 | O=C(NC(CO)c1ccc(F)c(F)c1)c1cc(-c2n[nH]cc2-c2cccc(Cl)c2)c[nH]1 (stereo not given) | 7.66 | 5.55 | –
4 | CN(C)C(=O)c1cc(-c2n[nH]cc2-c2ccccc2)c[nH]1 | – | < 5.40 | –
5 | O=C(NC(CO)c1cccc(F)c1)c1cc(-c2[nH]ncc2-c2cccc(Cl)c2)c[nH]1 (stereo not given) | 7.62 | 5.52 | –
6 | O=C(NC(CO)c1ccccc1F)c1cc(-c2[nH]ncc2-c2cccc(Cl)c2)c[nH]1 (stereo not given) | 6.62 | 5.51 | –
7 | O=C(NC(CO)c1ccc(F)c(Cl)c1)c1cc(-c2[nH]ncc2-c2cccc(Cl)c2)c[nH]1 (stereo not given) | 8.22 | – | –
8 | CNC(=O)[C@@H](NC(=O)c1cc(-c2[nH]ncc2-c2cccc(Cl)c2)c[nH]1)c1ccccc1 | 5.64 | 5.41 | –
9 | O=C(c1cc(-c2[nH]ncc2-c2cccc(Cl)c2)c[nH]1)N1CCCC1 | 6.70 | 5.74 | –
10 | O=C(N[C@H](CO)c1ccccc1)c1cc(-c2[nH]ncc2-c2cccc(Cl)c2)c[nH]1 | – | 5.55 | –
11 | O=C(NC1c2ccccc2CC1O)c1cc(-c2[nH]ncc2-c2cccc(Cl)c2)c[nH]1 (stereo not given) | 5.40 | 5.49 | –
12 | O=C(NOCc1ccccc1)c1cc(-c2[nH]ncc2-c2cccc(Cl)c2)c[nH]1 | – | 5.54 | –
13 | O=C(N[C@@H](CO)c1ccc(F)c(Cl)c1)c1cc(-c2n[nH]cc2-c2cccc(Cl)c2)c[nH]1 | 6.82 | < 5.40 | –
14 | NC(=O)[C@@H](NC(=O)c1cc(-c2[nH]ncc2-c2cccc(Cl)c2)c[nH]1)c1ccccc1 | 6.29 | 5.48 | –
15 | O=C(NC(CO)c1cc(Cl)cc(Cl)c1)c1cc(-c2n[nH]cc2-c2cccc(Cl)c2)c[nH]1 (stereo not given) | 8.15 | 5.47 | –
16 | C[C@H](NC(=O)c1cc(-c2n[nH]cc2-c2cccc(Cl)c2)c[nH]1)c1ccccc1 | 6.18 | < 5.40 | –
17 | O=C(NCc1ccc(F)c(F)c1)c1cc(-c2n[nH]cc2-c2cccc(Cl)c2)c[nH]1 | 7.40 | 6.10 | –
18 | O=C(NC(CO)c1ccc(C(F)(F)F)cc1)c1cc(-c2n[nH]cc2-c2cccc(Cl)c2)c[nH]1 (stereo not given) | 7.36 | 5.57 | –
19 | COc1ccc(CNC(=O)c2cc(-c3n[nH]cc3-c3cccc(Cl)c3)c[nH]2)cc1 | 6.31 | 6.08 | –
20 | O=C(NCCc1cccnc1)c1cc(-c2[nH]ncc2-c2cccc(Cl)c2)c[nH]1 | 6.48 | < 5.40 | –
21 | C[C@@H](NC(=O)c1cc(-c2n[nH]cc2-c2cccc(Cl)c2)c[nH]1)c1ccccc1 | 7.00 | 5.51 | –
22 | CCN1CCCC1CNC(=O)c1cc(-c2n[nH]cc2-c2cccc(Cl)c2)c[nH]1 (stereo not given) | < 5.00 | < 5.40 | –
23 | CN(Cc1ccccc1)C(=O)c1cc(-c2[nH]ncc2-c2cccc(Cl)c2)c[nH]1 | 6.36 | < 5.40 | –
24 | O=C(NC(CO)c1ccc(F)cc1)c1cc(-c2n[nH]cc2-c2cccc(Cl)c2)c[nH]1 (stereo not given) | 7.20 | < 5.40 | –
25 | CCN(C)C(=O)c1cc(-c2n[nH]cc2-c2cccc(Cl)c2)c[nH]1 | – | < 5.40 | –
26 | O=C(NC(CO)c1ccc(Cl)cc1)c1cc(-c2n[nH]cc2-c2cccc(Cl)c2)c[nH]1 (stereo not given) | 7.85 | 5.60 | –
27 | O=C(c1cc(-c2[nH]ncc2-c2cccc(Cl)c2)c[nH]1)N1CCc2ccccc2C1 | 6.29 | < 5.40 | –
28 | O=C(N[C@H](CO)c1ccc(F)c(Cl)c1)c1cc(-c2n[nH]cc2-c2cccc(Cl)c2)c[nH]1 | – | < 5.40 | Ki [3]: 3.3 µM; pKi [4]: < 5.40; pIC50 [5]: 6.27; pKi [6]: 5.96; pKi [7]: 6.12; pKi [8]: < 5.40; Ki [9]: 0.39 µM; pKi [10]: 5.74; pKi [11]: < 5.40; pKi [12]: < 5.40; pKi [13]: 5.41
